The source of these data is patent publication US7122558B2 (priority 2000, dated 2006).

Where a name gives a salt, the structure may show the parent alone.

This experiment deals with T1, human muscarinic receptors M3 (Homo sapiens, UniProt P20309).
T1 construct: expressed in transfected cells; host or cells: CHO-K1 (chinese hamster ovary-K1), stably transfected; membrane preparations
In words: biochemical. The format is binding. The note with it: for inhibition at 0.1 µM: read-out: % INHIBITION concentration: 1.00E−07 M; for inhibition at 0.01 µM: read-out: % INHIBITION concentration: 1.00E−08 M.

T1 sequence (P20309 whole entry): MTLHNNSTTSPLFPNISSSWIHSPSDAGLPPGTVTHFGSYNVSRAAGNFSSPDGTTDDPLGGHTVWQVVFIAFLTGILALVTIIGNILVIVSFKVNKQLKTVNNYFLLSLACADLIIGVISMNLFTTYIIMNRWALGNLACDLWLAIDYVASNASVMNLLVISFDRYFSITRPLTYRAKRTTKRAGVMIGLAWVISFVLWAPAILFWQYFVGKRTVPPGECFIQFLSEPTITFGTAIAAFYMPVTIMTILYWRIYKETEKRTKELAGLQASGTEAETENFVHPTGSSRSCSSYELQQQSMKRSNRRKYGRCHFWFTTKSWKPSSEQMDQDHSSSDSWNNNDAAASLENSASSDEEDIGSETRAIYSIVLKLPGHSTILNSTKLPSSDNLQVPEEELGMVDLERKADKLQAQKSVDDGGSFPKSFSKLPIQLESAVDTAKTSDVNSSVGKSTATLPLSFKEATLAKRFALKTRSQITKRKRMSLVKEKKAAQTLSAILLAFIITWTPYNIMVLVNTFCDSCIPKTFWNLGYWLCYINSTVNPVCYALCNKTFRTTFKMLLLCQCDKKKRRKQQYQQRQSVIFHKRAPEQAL

As for `N#Cc1cccc(OCCC[N+]23CCC(CC2)[C@@H](OC(=O)[C@](O)(c2cccs2)C2CCCC2)C3)c1` [Example 34, 1-[3-(3-Cyanophenoxy)propyl]-(3R)-3-[(2S)-2-cyclopentyl-2-hydroxy-2-thien-2-ylacetoxy]-1-azoniabicyclo[2.2.2]octane trifluoroacetate], the inhibition at 0.1 µM worked out at 85.3% and the inhibition at 0.01 µM was 68.3%.

Take `O=C(O[C@H]1C[N+]2(CCc3ccccc3)CCC1CC2)[C@@](O)(c1cccs1)C1CCCC1` [Example 56, (3R)-3-[(2R)-2-Cyclopentyl-2-hydroxy-2-thien-2-ylacetoxy]-1-phenethyl-1-azoniabicyclo[2.2.2]octane trifluoroacetate]: the inhibition at 0.1 µM is 77.3% and the inhibition at 0.01 µM is 53.8%.

On to `O=C(O[C@H]1C[N+]2(CCCOc3ccccc3)CCC1CC2)[C@@](O)(c1cccs1)C1CCCC1` [Example 53, (3R)-3-[(2R)-2-cyclopentyl-2-hydroxy-2-thien-2-ylacetoxy]-1-(3-phenoxypropyl)-1-azoniabicyclo[2.2.2]octane bromide], for which the inhibition at 0.1 µM was 81.5% and the inhibition at 0.01 µM was 58%.

Regarding `O=C(O[C@H]1C[N+]2(CCCc3ccccc3)CCC1CC2)[C@](O)(c1ccco1)C1CCCC1` [Example 67, (3R)-3-[(2R)-2-Cyclopentyl-2-fur-2-yl-2-hydroxyacetoxy]-1-(3-phenylpropyl)-1-azoniabicyclo[2.2.2]octane trifluoroacetate], the inhibition at 0.1 µM is 75.1% and the inhibition at 0.01 µM is 52.5%.

Regarding `O=C(O[C@H]1C[N+]2(CCc3ccccc3)CCC1CC2)[C@](O)(c1cccs1)C1CCCC1` [Example 25, (3R)-3-[(2S)-2-Cyclopentyl-2-hydroxy-2-thien-2-ylacetoxy]-1-phenethyl-1-azoniabicyclo[2.2.2]octane trifluoroacetate], the inhibition at 0.1 µM stood at 76.1% and the inhibition at 0.01 µM turned out to be 62.6%.

As to `O=C(O[C@H]1C[N+]2(CCCc3cccs3)CCC1CC2)[C@](O)(c1cccs1)C1CCCC1` [Example 23, (3R)-3-[(2S)-2-Cyclopentyl-2-hydroxy-2-thien-2-yl-acetoxy]-1-(3-thien-2-ylpropyl)-1-azoniabicyclo[2.2.2]octane trifluoroacetate], the inhibition at 0.1 µM is 75.6% and the inhibition at 0.01 µM was determined as 63.3%.

`O=C(O[C@H]1C[N+]2(CCCc3cccs3)CCC1CC2)[C@@](O)(c1ccco1)C1CCCC1` [Example 61, (3R)-3-[(2S)-2-Cyclopentyl-2-fur-2-yl-2-hydroxyacetoxy]-1-(3-thien-2-ylpropyl)-1-azoniabicyclo[2.2.2]octane trifluoroacetate]: the inhibition at 0.1 µM came to 75.1% and the inhibition at 0.01 µM was determined as 39.9%.

`O=C(O[C@H]1C[N+]2(CCCOc3ccccc3Cl)CCC1CC2)[C@](O)(c1cccs1)C1CCCC1` [Example 40, 1-[3-(2-Chlorophenoxy)-propyl]-(3R)-3-[(2S)-2-cyclopentyl-2-hydroxy-2-thien-2-ylacetoxy]-1-azoniabicyclo[2.2.2]octane trifluoroacetate]: the inhibition at 0.1 µM was determined as 86.9% and the inhibition at 0.01 µM was found to be 72.7%.

Regarding `O=C(O[C@H]1C[N+]2(CCCc3cccs3)CCC1CC2)[C@@](O)(c1cccs1)C1CCCC1` [Example 54, (3R)-3-[(2R)-2-Cyclopentyl-2-hydroxy-2-thien-2-ylacetoxy]-1-(3-thien-2-ylpropyl)-1-azoniabicyclo[2.2.2]octane trifluoroacetate], the inhibition at 0.1 µM came out at 72.5% and the inhibition at 0.01 µM was 44.1%.

Take `O=C(CCC[N+]12CCC(CC1)[C@@H](OC(=O)[C@](O)(c1cccs1)C1CCCC1)C2)c1ccccc1` [Example 38, (3R)-3-[(2S)-2-Cyclopentyl-2-hydroxy-2-thien-2-ylacetoxy]-1-(4-oxo-4-phenylbutyl)-1-azoniabicyclo[2.2.2]octane trifluoroacetate]: the inhibition at 0.1 µM worked out at 86.3% and the inhibition at 0.01 µM came out at 57.7%.

With `O=C(O[C@H]1C[N+]2(CCCc3ccccc3)CCC1CC2)[C@@](O)(c1cccs1)C1CCCC1` [Example 57, (3R)-3-[(2R)-2-Cyclopentyl-2-hydroxy-2-thien-2-ylacetoxy]-1-(3-phenylpropyl)-1-azoniabicyclo[2.2.2]octane trifluoroacetate], the inhibition at 0.1 µM was found to be 77.4% and the inhibition at 0.01 µM came to 47.1%.

As to `O=C(O[C@H]1C[N+]2(CCCSc3ccccc3)CCC1CC2)[C@](O)(c1ccccc1)C1CCCC1` [Example 84, (3R)-3-[(2R)-2-Cyclopentyl-2-hydroxy-2-phenylacetoxy]-1-(3-phenylsulfanylpropyl)-1-azoniabicyclo[2.2.2]octane trifluoroacetate], the inhibition at 0.1 µM amounted to 68.3% and the inhibition at 0.01 µM stood at 41%.

For the molecule `O=C(O[C@H]1C[N+]2(CCCc3cccs3)CCC1CC2)[C@](O)(c1ccco1)C1CCCC1.O=C([O-])C(F)(F)F` [Example 65, (3R)-3-[(2R)-2-Cyclopentyl-2-fur-2-yl-2-hygroxyacetoxy]-1-(3-thien-2-ylpropyl)-1-azoniabicyclo[2.2.2]octane trifluoroacetate], the “% INHIBITION concentration: 1.00E−08 M” value (0.01 µM) is reported as 66.0%. Further, where the note is “0.1 µM”, the “% INHIBITION concentration: 1.00E−07 M” value is listed as 79.8%.

For `O=C(O[C@H]1C[N+]2(CCCOc3ccccc3)CCC1CC2)[C@](O)(c1ccco1)C1CCCC1` [Example 64, (3R)-3-[(2R)-2-Cyclopentyl-2-fur-2-yl-2-hydroxyacetoxy]-1-(3-phenoxypropyl)-1-azoniabicyclo[2.2.2]octane trifluoroacetate], the inhibition at 0.1 µM came to 78.6% and the inhibition at 0.01 µM was 64.5%.

`O=C(O[C@H]1C[N+]2(CCCOc3ccc(F)cc3)CCC1CC2)[C@](O)(c1cccs1)C1CCCC1` [Example 28, (3R)-3-[(2S)-2-Cyclopentyl-2-hydroxy-2-thien-2-ylacetoxy]-1-[3-(4-fluorophenoxy)propyl]-1-azoniabicyclo[2.2.2]octane trifluoroacetate]: the inhibition at 0.1 µM stood at 78.3% and the inhibition at 0.01 µM is 60.6%.

On to `O=C(O[C@H]1C[N+]2(CCCOc3ccccc3)CCC1CC2)[C@](O)(c1cccs1)C1CCCC1` [Example 22, (3R)-3-[(2S)-2-Cyclopentyl-2-hydroxy-2-thien-2-ylacetoxy]-1-(3-phenoxypropyl)-1-azoniabicyclo[2.2.2]octane bromide], for which the inhibition at 0.1 µM was 81.5% and the inhibition at 0.01 µM came to 72%.

Regarding `O=C(O[C@H]1C[N+]2(CCOc3ccccc3)CCC1CC2)[C@](O)(c1cccs1)C1CCCC1` [Example 24, (3R)-3-[(2S)-2-Cyclopentyl-2-hydroxy-2-thien-2-ylacetoxy]-1-(2-phenoxyethyl)-1-azoniabicyclo[2.2.2]octane bromide], the inhibition at 0.1 µM was determined as 78% and the inhibition at 0.01 µM was determined as 56.6%.

On to `O=C(O[C@H]1C[N+]2(CCc3ccccc3)CCC1CC2)[C@@](O)(c1cccs1)C1CCCCC1` [Example 92, (3R)-3-[(2R)-2-Cyclohexyl-2-hydroxy-2-thien-2-ylacetoxy]-1-phenethyl-1-azoniabicyclo[2.2.2]octane trifluoroacetate], for which the inhibition at 0.1 µM came to 69.4% and the inhibition at 0.01 µM was determined as 49.2%.
